Experiments:
Format in all cases: in vivo, human
[1] = tested on: non-cirrhotic subjects with NASH; test: Phase 2 trial of Compound 1 in NASH: acylcarnitine species by UHPLC-MS
Method: Methods: In this double-blind, placebo-controlled trial, 126 non-cirrhotic subjects with NASH diagnosed noninvasively by MRI proton density fat fraction (PDFF) ≥8% and liver stiffness ≥2.5 kPa by MR elastography (MRE), or historical liver biopsy consistent with NASH and stage 1 to 3 fibrosis, were randomized 2:2:1 to receive Compound 1 20 mg, Compound 1 5 mg, or placebo orally QD for 12 weeks ([…]). Centrally-read MRI-PDFF and MRE, and FibroScan and serum markers of fibrosis were measured at baseline and […]. In some subjects, liver stiffness and hepatic fat content by Controlled Attenuation Parameter (CAP) were assessed using transient elastography (FibroScan®; Echosens, Paris, France) at baseline (i.e. week 0) and week 12. Acylcarnitine species measurements were performed with Ultrahigh Performance Liquid Chromatography-Tandem Mass Spectroscopy (UHPLC-MS; Waters Acquity UHPLC, Waters Corporation, Milford, MA USA) and Hybrid Quadrupole-Orbitrap mass spectometer (Q-Exactive Thermo Fischer Scientific, Waltham, MA, USA) platforms in electrospray ionisation-positive and -negative modes as known.

[2] = tested on: subjects with compensated cirrhosis due to NASH; test: Proof-of-concept study of Compound 1 in compensated cirrhosis due to NASH
Method: Methods: In a proof-of-concept study, 10 subjects with suspected compensated cirrhosis (Child-Turcotte-Pugh [CTP]-A) due to NASH (defined by any one of biopsy, liver stiffness by magnetic resonance elastography [MRE]≥4.67 kPa or transient elastography ≥14.0 kPa, or Fibrotest ≥0.75) received Compound 1 20 mg orally once daily for 12 weeks. Centrally-read magnetic resonance imaging-proton density fat fraction (MRI-PDFF) and MRE, and serum markers of fibrosis were measured at baseline (BL), Week 4 (W4), and Week 12 ([…]). For DNL determination, heavy water (^2H2O, 35 mL) was administered three times daily for one-week cycles prior to baseline, W4, and […]. Deuterium incorporation into palmitate was measured in fasting plasma samples by GC/MS, and mass isotopomer distribution analysis was used to calculate hepatic DNL and its inhibition by Compound 1.

[3] = tested on: non-cirrhotic subjects with NASH; test: Phase 2 trial of Compound 1 in NASH: standard lipid tests and NMR LipoProfile lipoproteins in fasting serum; settings: for HDL-P (total HDL particles), median / HDL-C, median / VLDL-P (total VLDL particles), median / LDL-C, median / TG, median / TC, median / LDL-P (total LDL particles), median: Compound 1 20 mg daily; for HDL-P (total HDL particles), median: BL 30; for HDL-C, median: BL 42; for VLDL-P (total VLDL particles), median: BL 53; for LDL-C, median: BL 99; for TG, median: BL 160; for TC, median: BL 179; for LDL-P (total LDL particles), median: BL 1397
Method: Methods: In this double-blind, placebo-controlled trial, 126 non-cirrhotic subjects with NASH diagnosed noninvasively by MRI proton density fat fraction (PDFF) ≥8% and liver stiffness ≥2.5 kPa by MR elastography (MRE), or historical liver biopsy consistent with NASH and stage 1 to 3 fibrosis, were randomized 2:2:1 to receive Compound 1 20 mg, Compound 1 5 mg, or placebo orally QD for 12 weeks (W12). Centrally-read MRI-PDFF and MRE, and FibroScan and serum markers of fibrosis were measured at baseline and W12. In some subjects, liver stiffness and hepatic fat content by Controlled Attenuation Parameter (CAP) were assessed using transient elastography (FibroScan®; Echosens, Paris, France) at baseline (i.e. week 0) and week 12.
In addition to standard lipid tests (serum triglycerides (“TG”), total cholesterol (“TC”), low density lipoprotein cholesterol (“LDL-C”), and high density lipoprotein cholesterol (“HDL-C”), lipoproteins also were measured by nuclear magnetic resonance spectroscopy (NMR LipoProfile®, LabCorp) in fasting serum samples at baseline (“BL”), week 1 (W1), week 4 (W4), and W12. Changes from BL in Compound 1-treated subjects were evaluated using Wilcoxon sign-rank tests and comparisons vs placebo using Wilcoxon rank-sum tests (all with Bonferroni adjustment).

[4] = Compound 1 5 mg, PDFF Nonresponders
[5] = Compound 1 5 mg, PDFF Responders
[6] = Compound 1 20 mg, PDFF Nonresponders
[7] = Compound 1 20 mg, PDFF Responders

COc1ccccc1[C@H](Cn1c(=O)n(C(C)(C)C(=O)O)c(=O)c2c(C)c(-c3ncco3)sc21)OC1CCOCC1 [Compound 1, (R)-2-(1-(2-(2-methoxyphenyl)-2-((tetrahydro-2H-pyran-4-yl)oxy)ethyl)-5-methyl-6-(oxazol-2-yl)-2,4-dioxo-1,2-dihydrothieno[2,3-d]pyrimidin-3(4H)-yl)-2-methylpropanoic acid]
Acylcarnitine species compared according to PDFF response ([1]; Compound 1 5 mg): minimal changes
3-hydroxybutyrylcarnitine (1), median % change from baseline [1, 4]: −4.08%
5-dodecenoylcarnitine (C12:1), median % change from baseline [1, 4]: 15.43%
laurylcarnitine (C12), median % change from baseline [1, 4]: 15.23%
linolenoylcarnitine (C18:3), median % change from baseline [1, 4]: −23.55%
myristoleoylcarnitine (C14:1), median % change from baseline [1, 4]: 25.74%
myristoylcarnitine (C14), median % change from baseline [1, 4]: 12.05%
octadecenedioylcarnitine (C18:1-DC), median % change from baseline [1, 4]: 0%
palmitoleoylcarnitine (C16:1), median % change from baseline [1, 4]: 18.13%
3-hydroxybutyrylcarnitine (1), median % change from baseline [1, 5]: −18.06%
5-dodecenoylcarnitine (C12:1), median % change from baseline [1, 5]: 2.08%
laurylcarnitine (C12), median % change from baseline [1, 5]: 1.99%
linolenoylcarnitine (C18:3), median % change from baseline [1, 5]: 6.49%
myristoleoylcarnitine (C14:1), median % change from baseline [1, 5]: −4.71%
myristoylcarnitine (C14), median % change from baseline [1, 5]: −7.50%
octadecenedioylcarnitine (C18:1-DC), median % change from baseline [1, 5]: 33.24%
palmitoleoylcarnitine (C16:1), median % change from baseline [1, 5]: −0.06%
3-hydroxybutyrylcarnitine (1), median % change from baseline [1, 6]: 34.27%
5-dodecenoylcarnitine (C12:1), median % change from baseline [1, 6]: 58.85%
laurylcarnitine (C12), median % change from baseline [1, 6]: 36.72%
linolenoylcarnitine (C18:3), median % change from baseline [1, 6]: 20.43%
myristoleoylcarnitine (C14:1), median % change from baseline [1, 6]: 22.42%
myristoylcarnitine (C14), median % change from baseline [1, 6]: 23.92%
octadecenedioylcarnitine (C18:1-DC), median % change from baseline [1, 6]: 36.38%
palmitoleoylcarnitine (C16:1), median % change from baseline [1, 6]: 31.63%
3-hydroxybutyrylcarnitine (1), median % change from baseline [1, 7]: −13.99%
5-dodecenoylcarnitine (C12:1), median % change from baseline [1, 7]: −12.39%
laurylcarnitine (C12), median % change from baseline [1, 7]: −3.23%
linolenoylcarnitine (C18:3), median % change from baseline [1, 7]: −17.84%
myristoleoylcarnitine (C14:1), median % change from baseline [1, 7]: −7.22%
myristoylcarnitine (C14), median % change from baseline [1, 7]: −19.99%
octadecenedioylcarnitine (C18:1-DC), median % change from baseline [1, 7]: −11.01%
palmitoleoylcarnitine (C16:1), median % change from baseline [1, 7]: −9.82%
Multiple long and medium-chain acylcarnitine species, PDFF response versus no PDFF response ([1]; Compound 1 20 mg, before administration of the next daily dose): significantly reduced
Asymptomatic Grade 3 hypertriglyceridemia ([2]; Compound 1 20 mg once daily, 10 subjects, responded to fibrate therapy): One subject
Changes in MRE-stiffness or serum fibrosis markers ([2]; Compound 1 20 mg once daily, 12 weeks): No significant changes
Tolerability ([2]; Compound 1 20 mg once daily, 12 weeks, no premature discontinuation): well-tolerated
Other lipid parameters ([2]; Compound 1 20 mg once daily, BL to W12): unchanged
≥30% relative decline in PDFF, % of subjects ([2]; Compound 1 20 mg once daily, W4, 5 of 10 subjects): 50%
≥30% relative decline in PDFF, % of subjects ([2]; Compound 1 20 mg once daily, W12, 7 of 10 subjects): 70%
Fasting triglycerides, median ([2]; Compound 1 20 mg once daily, W12, IQR (142, 248), BL 147 (105, 231), P=0.008): 159 mg/dL
Hepatic PDFF (MRI-PDFF), median ([2]; Compound 1 20 mg orally once daily, W12, BL 9.2, P=0.004): 4.6%
Serum ALT, median ([2]; Compound 1 20 mg orally once daily, W12, BL 46, P=0.008): 32 U/L
Asymptomatic Grade 3 or 4 TG elevations (>500 mg/dL), number of subjects ([3]; Compound 1 5 mg): 9 subjects
Median relative change in triglycerides (TG) ([3]; Compound 1 5 mg, W12): +13%
Asymptomatic Grade 3 or 4 TG elevations (>500 mg/dL), number of subjects ([3]; Compound 1 20 mg): 7 subjects
HDL-P (total HDL particles), median ([3]; W1): 30 µmol/L
HDL-C, median ([3]; W1): 39 mg/dL
VLDL-P (total VLDL particles), median ([3]; W1): 72 nmol/L
LDL-C, median ([3]; W1): 102 mg/dL
TG, median ([3]; W1): 191 mg/dL
TC, median ([3]; W1): 192 mg/dL
LDL-P (total LDL particles), median ([3]; W1): 1260 nM
HDL-P (total HDL particles), median ([3]; W4): 30 µmol/L
HDL-C, median ([3]; W4): 39 mg/dL
VLDL-P (total VLDL particles), median ([3]; W4): 52 nmol/L
LDL-C, median ([3]; W4): 96 mg/dL
TG, median ([3]; W4): 188 mg/dL
TC, median ([3]; W4): 184 mg/dL
LDL-P (total LDL particles), median ([3]; W4): 1360 nM
HDL-P (total HDL particles), median ([3]; W12): 30 µmol/L
HDL-C, median ([3]; W12): 42 mg/dL
VLDL-P (total VLDL particles), median ([3]; W12): 52 nmol/L
LDL-C, median ([3]; W12): 99 mg/dL
TG, median ([3]; W12): 177 mg/dL
TC, median ([3]; W12): 182 mg/dL
LDL-P (total LDL particles), median ([3]; W12): 1230 nM
Changes in glucose, insulin, or HbA1c compared to placebo ([3]; Compound 1 20 mg or 5 mg): no significant changes
Median relative change in triglycerides (TG) ([3]; Compound 1 20 mg, W12): +11%
Changes from baseline in HDL-C, TC, and LDL-C ([3]; Compound 1-treated subjects, W12): not significant
Median TG increase ([3]; Compound 1-treated subjects, W12, IQR (−6, 72), p=0.14 vs placebo): 14 mg/dL
Changes in total HDL or total LDL particles ([3]; subjects on Compound 1): No significant changes
Time course of TG elevations ([3]; subjects on Compound 1): peaked at W1 and declined thereafter

Source: patent US11963961B2, “Combination therapy comprising an ACC inhibitor” (Gilead Sciences, Inc., priority 2017, dated 2024)
